# In ChEMBL document CHEMBL3886670, “ROR modulators and their uses” (2016):
# Biological target: T1, Nuclear receptor ROR-gamma (Homo sapiens, UniProt P51449)
# T1 sequence (P51449 whole entry): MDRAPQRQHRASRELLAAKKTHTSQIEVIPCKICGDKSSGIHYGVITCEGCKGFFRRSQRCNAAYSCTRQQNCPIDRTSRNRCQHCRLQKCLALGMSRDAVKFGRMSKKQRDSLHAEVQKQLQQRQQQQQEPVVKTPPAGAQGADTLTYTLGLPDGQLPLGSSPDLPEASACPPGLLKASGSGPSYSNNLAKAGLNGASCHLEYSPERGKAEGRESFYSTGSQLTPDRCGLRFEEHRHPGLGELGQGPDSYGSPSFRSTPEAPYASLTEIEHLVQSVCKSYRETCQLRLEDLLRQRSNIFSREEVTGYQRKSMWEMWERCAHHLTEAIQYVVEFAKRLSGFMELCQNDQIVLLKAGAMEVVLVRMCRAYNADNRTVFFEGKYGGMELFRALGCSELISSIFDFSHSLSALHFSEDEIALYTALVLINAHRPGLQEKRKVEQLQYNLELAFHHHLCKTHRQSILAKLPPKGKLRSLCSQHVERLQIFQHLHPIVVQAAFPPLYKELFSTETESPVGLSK
# Assay: Binding Assay: Compound binding to the human RORγ LBD was assessed using the Human RORγ Assay System (INDIGO Biosciences Inc.) as per manufacturer's instructions. Binding to the RORγ LBD was assessed using gradient concentrations of the indicated compounds in a final concentration of 0.5% DMSO.
smiles,measurement,value
CS(=O)(=O)Nc1ccc2c(c1)CCC(=O)N2Cc1ccc(C(O)(C(F)(F)F)C(F)(F)F)cc1,IC50,< 10 µM
